Measurements published in ChEMBL document CHEMBL3507680, “University of Dundee, Gates Library screen for HepG2 cell viability”.

Assay: Human HepG2 cell viability assay in 384 well format
Format: toxicity, cell-based
Design: dose 125 nL, time 70.5 hour; cytotoxicity at 70.5 h: concentration not given beside the values
Conditions: HepG2 cells, read-out: Inhibition

SMILES	cytotoxicity at 70.5 h [%]
Cc1ccoc1C(=O)N1C[C@@H](OCC2CC2)[C@H]2OCCC[C@H]21	-1.01
COc1ncc(NS(=O)(=O)c2cccc(C)c2)c(OC)n1	21.8
CC(C)CN1CC(C(=O)NCCNc2ncccn2)CC1=O (configuration not stated)	-0.397
CC(C)Cc1nc(CS(=O)(=O)c2ccccc2)no1	-2.63
CC1CCCCN1CCNC(=O)c1ccn(-c2ccc(F)cc2)n1 (configuration not stated)	35.6
CCc1cc(=O)n(CC(=O)N2CCCCC2)c(-c2cccc(F)c2)n1	-9.52
CCOC1CCCN(C(=O)Nc2cnn(CC(F)F)c2)C1 (configuration not stated)	-9.21
Cc1nc2ccccc2n(Cc2nnnn2C2CC2)c1=O	-5.13
O=C(Nc1cnn(COc2ccc(F)cc2Cl)c1)C1CC1	9.89
CNC(=O)c1cccc(CN2CCN(c3ccncc3)CC2)c1	0.282
COCC(=O)N1C[C@@H](OCc2ccncc2)[C@@H]2OCCC[C@@H]21	52.2
Cc1cccc(-c2nc(CN3CC(n4nc(C)cc4C)C3)no2)c1	-4.09
Cc1ccc(CN2CCC(CNC(=O)Cn3cncn3)CC2)cc1	-6.33
CS(=O)(=O)Cc1ccc(CNC(=O)c2cccnc2O)cc1	9.83
NC(=O)c1ccc(NC(=O)N2CCN(c3cccs3)CC2)c(F)c1	-16.2
Cc1cnc(C)c(N2CCCC(CC3CC3)(C(=O)O)C2)n1 (configuration not stated)	-4.19
CN(C)CCN1CCCC12CCN(C(=O)c1ccncc1)CC2	-7.81
Cc1[nH]c2c(F)cccc2c1CC(=O)NCc1csc(N(C)C)n1	39.7
Cc1ccc(-n2cc(C(=O)N3CCCC(n4cccn4)C3)nn2)cc1 (configuration not stated)	-5.27
CN(C)C(=O)CC1CC2(CCNCC2)c2cc(F)ccc21 (configuration not stated)	-8.47
CS(=O)(=O)N[C@@H]1CCN(Cc2ccncc2)[C@H]1Cc1cccnc1	-12.8
COc1ccc(NC2CCc3c2[nH]c(=O)n(C2CCCCC2)c3=O)cc1 (configuration not stated)	-28.5
CCn1nc(C)c2c1cnn2CCNS(=O)(=O)c1cccs1	4.54

SMILES	cytotoxicity at 70.5 h [%]
Cc1cc(O)nc(C2CN(CCO)CCO2)n1 (configuration not stated)	8.3
CCc1cc(NC2CCN(Cc3ccccc3F)CC2)n2nccc2n1	-16.6
O=C(C1CCOC1)N1CCC2(CC1)COCCN(Cc1ccncc1)C2 (configuration not stated)	-11.2
CCn1cc(CN2CCCN(C(=O)c3ccco3)CC2)cn1	-6.43
CCn1cc(CN(C)C(=O)C(c2ccccc2C)N(C)C)cn1 (configuration not stated)	-1.5
NCc1n[nH]c(-c2ccc(F)cc2)n1	-0.714
Cn1cc(C2CCCN2CCc2nc3ccccc3c(=O)[nH]2)cn1 (configuration not stated)	-2.12
CN(CC(=O)Nc1ccc(Br)cn1)C(=O)C(C)(C)C	-6.91
O=S(=O)(Cc1c(F)cccc1Cl)Cc1nnnn1C1CC1	-13.2
Cn1ccnc1-c1cn(CCCc2nnc(N)s2)nn1	-19.9
Cc1cnc(C(=O)N2C[C@H]3CN(Cc4cccs4)C[C@H]3C2)cn1	8.68
CC(C)CCOc1ccc(C(C)NC(=O)CSCC(N)=O)cc1 (configuration not stated)	-8.07
CN(CC(=O)NCc1cccnc1N1CCCCC1)C(=O)c1cccs1	0.0514
O=C([C@@H]1COC[C@H]2CN(c3ccncn3)C[C@H]21)N1CCCCO1	-6.51
CC(C)CNC(=O)CNC(=O)NCC(O)c1ccc2ccccc2c1 (configuration not stated)	-3.3
O=C(CCc1ccncc1)N1CCCC(N2CCNC2=O)C1 (configuration not stated)	-19.2
O=C(CC1COCCN1)NCCc1nc(Cc2ccccc2)no1 (configuration not stated)	-15.5
CC(C)CN1CCC(N2CCC(C(=O)N(C)C)CC2)CC1	3.98
CCNc1cc2c(nn1)CCN(C(=O)c1cc3nc(C)ccc3o1)C2	22.7
O=C(NC[C@H]1C[C@@H]2CCN1C[C@@H]2CN1CCCCC1)Nc1ccccc1	-1.01
CC(C)CNC(=O)[C@H]1C[C@@H]2CN(C(=O)Nc3ccc(F)cc3)C[C@H]1O2	-26.4
CSc1ccccc1NC(=O)C1CN(C(=O)c2ccc3c(c2)OCO3)C1	0.521
CC(C)C(=O)NC1CCCN(C(=O)c2cc3ccccc3cc2O)C1 (configuration not stated)	-4.18

SMILES	cytotoxicity at 70.5 h [%]
COCCn1cc(-c2cc(C(=O)N3CCCC3)c3ccccn23)nc1C	-0.704
Cc1ccc(-c2ncc(CN3CCN(S(N)(=O)=O)CC3)s2)o1	0.625
CC(C)C(=O)NC1CCN(Cc2cccc3c2OCCO3)CC1	-1.98
COc1ccc(Nc2nc3c(C)nn(C)c3c(=O)n2C)c(C)c1	0.529
O=C(c1cc[nH]n1)N1CCc2onc(COc3cccnc3)c2C1	-6.72
CN1CCCN(C(=O)c2nc3c(n2C)CCN(c2ncccn2)C3)CC1	22.6
COCC1CC2(CCN(C(=O)c3occc3C)CC2)CN1C(C)C (configuration not stated)	20.9
Cc1cccc(NC(=O)Cn2ncc(SCC(N)=O)c(Cl)c2=O)c1C	-13.7
O=S(=O)(NC[C@H]1OC[C@@H](NCc2cccs2)[C@@H]1O)c1ccccc1	-10.7
Cc1cccc(C)c1OCCNC(=O)C[S+]([O-])C1CCCC1 (configuration not stated)	-5.72
CSc1nccc(N2CCC(NCc3ccc4c(c3)OCO4)CC2)n1	4.69
C=C(C)COc1ccccc1C(=O)N1CCC(C(=O)NCC)C1 (configuration not stated)	-0.0263
CC(C)c1nccc(N2CCN(CC(=O)N3CCOCC3)CC2)n1	-10.5
CN([C@@H]1CC[C@@H](N2CCOCC2)[C@@H]1O)S(=O)(=O)c1ccccc1	-10.3
O=C(COCC1CC1)Nc1ncn(CC(=O)N2CCCCCC2)n1	-3.31
COCCCNC(=O)N1CCN(C(=O)c2nsc3ccc(C)cc23)CC1	20.4
COc1c(CNC2CCN(C(=O)C(C)C)CC2)c(C(C)C)nn1C	19.1
Fc1ccccc1CN1CCCN(c2ncnc3[nH]ccc23)CC1	-24
O=C(O)c1cc(-c2ccncc2)cc(S(=O)(=O)N2CCSCC2)c1	-6.71
O=C(CN1CCC(c2cccc(F)c2)C1)NCc1ccco1 (configuration not stated)	59.3
N[C@H]1CN(C(=O)c2ccccc2Oc2ccccc2)C[C@@H]1C1CC1	-9.43
COCCN1CCC(C(=O)N(C)Cc2c[nH]c3ccc(C)cc23)C1 (configuration not stated)	-8.11
O=C(c1cccnc1)C1CCCN(c2nnc(C3CC3)o2)C1 (configuration not stated)	-1.21

SMILES	cytotoxicity at 70.5 h [%]
CS(=O)(=O)NCc1cc2n(n1)CCCN(Cc1nc3ccccc3[nH]1)C2	-8.44
Cc1noc(C)c1C(=O)NCc1cccnc1N(C)C	-9.96
Cc1ccc(CN2CCC3(CC2)C(=O)NCCN3CC2CC2)o1	8.52
CN(Cc1ccco1)Cc1ccccc1CNC(=O)c1ccncc1	-8
CCc1nc(CN2CCOC(CN(CC)c3cccnn3)C2)cs1 (configuration not stated)	-12.8
CC(=O)c1cc(CC(=O)N2CCN(CCOc3ccccc3)CC2)cs1	-1.31
CS(=O)(=O)NC1CCCN(C(=O)NCc2ccccc2Cl)C1 (configuration not stated)	-2.53
COc1ccc(CN2CC(O)CN(C(=O)c3ccccc3)CC2=O)cc1 (configuration not stated)	7.16
O=C(CCn1ccccc1=O)Nc1ccc(F)c(Cl)c1	-11.7
Cn1c(=O)n(C)c2nc(Cl)c(CC(=O)c3ccccc3)n2c1=O	-4.74
COC(C)(CNS(=O)(=O)c1cccnc1)c1ccccc1F (configuration not stated)	-18.1
CC(=O)N1CCO[C@@H]2CN(C(=O)NCc3cccnc3)CC[C@@H]2C1	-2.08
Cc1nnc(N2CCC(CCn3ccnc3C)CC2)o1	-5.62
Cn1cc(S(=O)(=O)NCC2CCN(C(=O)c3ccoc3)CC2)cn1	-2.52
CCC1CCCN(C(=O)Cc2csc(-c3ncccn3)n2)C1 (configuration not stated)	36.3
O=C(c1ncncc1Cl)N1CCN(c2ccc(Cl)cc2)CC1	-8.8
CC(=O)N1CCCCC1c1nc2c(c(NC3CCCC3)n1)CN(C)CC2 (configuration not stated)	17
Cc1cc(-n2cccn2)ccc1CN1CCC(O)(CN2CCCCC2)C1 (configuration not stated)	1.06
c1cncc(N2CCOCC3(CCCN(Cc4cccs4)C3)C2)c1 (configuration not stated)	0.445
CCc1nc(CC(=O)NC(C#N)CC(C)C)cs1 (configuration not stated)	-0.177
N#CC1(NC(=O)c2c(F)ccc(OC(F)F)c2F)CCOCC1	-9.56
COc1cc(NC(=O)c2cc(C)sc2C)c(C(=O)N(C)C)cc1OC	-19.4
Nc1cc2c(nn1)CCN(C(=O)CCCC1CCCCC1)C2	-13.1

SMILES	cytotoxicity at 70.5 h [%]
O=S(=O)(N1CCCC1)N1CCc2sccc2C1	0.675
O=C1CCC(C(=O)N2CCC(Cn3cc(C4CCCC4)nn3)CC2)=NN1	-2.69
Cc1ccc(CN(Cc2nc3c(cnn3C)c(=O)[nH]2)C(C)C)s1	-0.211
COc1ccc(CNC(=O)c2ccc(Br)cn2)cc1	13.3
Cc1nc(C)n(CC2CN(Cc3ccccc3C#N)CCO2)n1 (configuration not stated)	-3.74
Cc1ccc(C(C)C(=O)N2CCCN(Cc3cscn3)CC2)cc1 (configuration not stated)	5.25
CCCn1nccc1S(=O)(=O)N1CCC2(CCCN(C(C)C)C2=O)C1 (configuration not stated)	17.4
O=C(CCc1cscn1)N1CCCC(n2cncn2)C1 (configuration not stated)	10.8
CC(CO)(NC(=O)NCc1ccc(Br)s1)C1CC1 (configuration not stated)	-8.92
O=C(CN1CCOC(c2ccccc2C(F)(F)F)C1)NC1CC1 (configuration not stated)	-7.54
c1cc(CNCC2Cn3nncc3CO2)co1 (configuration not stated)	-6.75
CCC(=O)N1CC[C@H](O)[C@@H]1Cc1ccccc1	-9.02
COc1cc(C)c(C)cc1S(=O)(=O)NCC(O)c1cccn1C (configuration not stated)	-5.03
c1cnnc(N2CCCC2CNCc2cccs2)c1 (configuration not stated)	-1.72
Cc1ccccc1N1CCCN(C(=O)CCc2ccncc2)CC1	-9.24
Cc1nc(C(=O)N2CCC3(CC2)CC(=O)N(CC2CCCO2)C3)cs1 (configuration not stated)	-9.89
Cc1noc(C)c1CN1CC[C@H]2OCC[C@@]2(C(=O)N2CCOCC2)C1	-4.59
Cc1cc(C)n(CC2CCCN2C(=O)c2cccc3[nH]ncc23)n1 (configuration not stated)	-8.53
Cc1nc(NC(=O)C(C)S(C)(=O)=O)sc1Cc1ccccc1F (configuration not stated)	-7.43
O=C(CCc1nc2cc(Br)cnc2[nH]1)NCc1cccnc1	-17.1
